This is an account of results in patent publication US20260115216A1, “NUCLEIC ACID PRECURSOR” (priority 2022, published 2026).

Read-outs that look alike come from different tables or passages of the source.

Data set [1] relates to NHDF (normal human dermal fibroblasts). Kind of data set: Cytotoxicity by LDH release (Test Example 5). The class given is cell-based. The note with it: 24 hours. How it is done:
NHDF (normal human dermal fibroblasts) were seeded at 5000 cells per well in DMEM/F12 with 10% FBS and 1% penicillin/streptomycin, and after 3 hours, a solution of the ATP prodrug prepared in Example 1 in DMSO at varying concentrations was added to the wells. After 24 hours, the release of the cytotoxicity marker, lactate dehydrogenase (LDH), was quantified using the LDH assay kit (Dojin Chemical), and the cytotoxicity was calculated.
(LDH in the medium is a marker of cell lysis.)

Data set [2] concerns AMP-activated protein kinase (AMPK). Nature of the data set: Intracellular ATP levels using AMPK inhibitor (Test Example 7). The note with it: normal human dermal fibroblasts, ATP prodrug 100 μM, 24 hours.
Another data set relates to MCF7 cells. Nature of the data set: Effect of ATP analogs on intracellular ATP concentration in MCF7 cells (Test Example 2). The format is cell-based, human. The following applies: MCF7, 100 μM, one day and two days, normalized to DNA, compared with adenosine, AMP. The protocol:
Adenosine, AMP, ATP, and the ATP prodrug were added to the culture medium of MCF7 cells (5000 cells/well) at a concentration of 100 μM, and, one day and two days later, ATP was measured, followed by normalizing the results to the DNA amounts.

In data set [3] the test system is nematodes. Kind of data set: Lifespan extension in model organism (nematode), survival analysis (Test Examples 8 and 10). The format is in vivo. The note with it: for average lifespan extended compared to the control: 1% DMSO. The protocol:
The ATP prodrug prepared in Example 1, dissolved in DMSO, was added to the liquid Nematode Growth Medium (NGM) that had been sterilized and maintained at 60° C. at a final concentration of 100 μM, so as to prepare an ATP prodrug-containing NGM plate. At this time, the final concentration of DMSO in the NGM was adjusted to 1%. […] Onto the surface of the NGM plate used immediately before survival analysis, the bacterium Escherichia coli strain OP50 stirred in M9 buffer was applied as food for the nematodes.
Thirty-five nematodes were transferred to the NGM plate, after performing age synchronization. The nematodes were transferred to a new NGM plate every day from the first day of adulthood (the third day) to the seventh day, and every two days from the eighth day until the nematodes died. At the same time, the numbers of living nematodes and dead nematodes were recorded. Survival status of the nematodes was determined by whether they reacted when touched. Average lifespan was calculated from the results obtained, and the average lifespans were compared to determine the lifespan extension rate of the nematodes. This experiment was conducted four times to confirm the reproducibility (In cases of both with and without the addition of proATP, n=114).
ATP prodrug-neo dissolved in DMSO, was added to the liquid Nematode Growth Medium (NGM) that had been sterilized and maintained at 60° C. at a final concentration of 200 µM, so as to prepare an ATP prodrug-neo-containing NGM plate. At this time, the final concentration of DMSO in the NGM was adjusted to 1%. […]
Thirty-five nematodes were transferred to the NGM plate, after performing age synchronization. […] At the same time, the numbers of living nematodes and dead nematodes were recorded. Survival status of the nematode was determined by whether they reacted when touched. Average lifespan was calculated from the results obtained, and the average lifespans were compared to determine the lifespan extension rate of the nematodes. […]

Another data set relates to HDF derived from human. Nature of the data set: Oxidative stress load (hydrogen peroxide) on aged cells, cell number by WST-8 (Test Example 4 B). The format is cell-based. The note with it: HDF from person, 75 μM ATP prodrug 24 hours, then 200 μM hydrogen peroxide 6 hours. The protocol:
(§1) Human Dermal Fibroblasts (HDF) derived from human (Toyobo) were seeded at 5000 cells/well in DMEM low glucose, 10% FBS, and 1% penicillin/streptomycin, and three hours later, the ATP prodrug dissolved in DMSO was added at either 0 or 50 μM. (A) The sample was incubated for 24 hours. The amount of DNA was measured using picogreen, and converted to cell count from a calibration curve separately created. The ATP level was quantified using the ATP measurement kit (Dojin Chemical), and the ATP level per cell was calculated. (B) 75 μM of the ATP prodrug was added to the HDF derived from human, and the medium was replaced with serum-free medium comprising 200 μM of hydrogen peroxide after 24 hours, followed by incubating the mixture for 6 hours. After 6 hours, the cells were washed, and the cell numbers were compared using the WST-8 kit.
A general note: Tetrazolium dyes change colour on reduction, which living cells bring about.

Data set [4] relates to Human Dermal Fibroblasts (HDF) derived from human. Kind of data set: Intracellular ATP level in young and aged human dermal fibroblasts (Test Example 4 A). The format is cell-based. The note with it: 50 μM, 24 hours. How it is done: as §1
The test system of data set [5] is MCF7 (human breast cancer cells). Nature of the data set: Effect of ATP prodrug on intracellular ATP concentration in MCF7 cells (Test Example 1). The format is cell-based. The following applies: MCF7, 100 μM ATP prodrug, after 3 days, ATP per cell. How it is done: MCF7 (human breast cancer cells) (RIKEN BRC) were seeded at 5000 cells per well in DMEM low glucose, 10% FBS, and 1% penicillin/streptomycin, and, after 3 hours, solutions of the ATP prodrug prepared in Example 1 in DMSO at varying concentrations were added to those wells. Three days later, the amounts of DNA were measured using picogreen, and converted to cell counts from a calibration curve separately created. The amount of ATP was quantified using the ATP measurement kit (Dojin Chemical), and the amount of ATP per cell was calculated.

The subject of data set [6] is Human liver cancer cells (HepG2). Kind of data set: Intracellular ATP level in liver cancer cells (Test Example 6). The format is cell-based. The note with it: HepG2 (cultured cells), varying concentrations, 24 hours. The protocol: Human liver cancer cells (HepG2) were seeded at 5000 cells per well in DMEM with 10% FBS and 1% penicillin/streptomycin, and after 3 hours, a solution of the ATP prodrug prepared in Example 1 in DMSO at varying concentrations was added to the wells. After 24 hours, the amount of DNA was measured using picogreen, and converted to cell count based on a calibration curve separately created. The ATP level was quantified using the ATP measurement kit (Dojin Chemical), resulting in the ATP level per cell.

Data set [7] relates to nematodes. Nature of the data set: ATP level in model organism (nematode). The class given is in vivo. The note with it: nematodes on NGM plate with 100 μM ATP prodrug, seventh day of cultivation. How it is done: The culture of the nematodes and the addition of the ATP prodrug to the nematodes were conducted under the same conditions as those in the survival analysis. On the seventh day of cultivation, five nematodes were collected for each condition, totaling twenty-five nematodes, and were transferred to a 24-well plate containing PBS, followed by conducting ultrasonic disruption while kept on ice for one minute. Then, the crushed liquid was collected into a microtube, and after centrifugation (15,000 rpm, 30 minutes, 4° C.), the supernatant was collected. Amount of the ATP in the supernatant was quantified using the ATP measurement kit (Dojin Chemical), and the amount of the ATP per nematode was calculated.

For a further data set, the system named is Human fibroblasts (NHDF). Nature of the data set: Effect on intracellular ATP concentration using normal cells (Test Example 3). The format is cell-based. The note with it: 200 μM ATP prodrug, one day, ATP per cell. How it is done: Human fibroblasts (NHDF) (Takara Bio) were seeded at 5000 cells per well in DMEM low glucose, 10% FBS, and 1% penicillin/streptomycin, and, after 3 hours, a solution of the ATP prodrug prepared in Example 1 in DMSO at varying concentrations was added to the wells. One day later, the amount of DNA was measured using picogreen, and converted to cell count from a calibration curve separately created. The ATP level was quantified using the ATP measurement kit (Dojin Chemical), and the ATP level per cell was calculated.

The next data set relates to normal pig liver cells. Nature of the data set: Intracellular ATP level in primary liver cells (Test Example 6). The class given is cell-based. The following applies: varying concentrations, 24 hours. The protocol: In addition to this study, normal pig liver cells were seeded at 5000 cells per well in the liver cell differentiation environment (Hepatp-STIM, 1 μg/100 mL EGF, 1% penicillin/streptomycin), and after 3 hours, a solution of the ATP prodrug in DMSO at varying concentrations was added to the wells. The DNA amount was measured using picogreen 24 hours later. The ATP level was quantified using the ATP measurement kit (Dojin Chemical), and the ATP level was provided.

Data set [8] concerns HDF75 (human dermal fibroblasts derived from a person). Kind of data set: Effect of ATP prodrug-neo on intracellular ATP concentration (Test Example 9). The class given is cell-based. The note with it: HDF75, varying concentrations, 24 hours, ATP per cell. How it is done: HDF75 (human dermal fibroblasts derived from a person) (Cell Applications, Inc.) were seeded at 5000 cells per well in the human dermal fibroblast growth medium, and after 3 hours, a solution of the ATP prodrug-neo prepared in Example 2 in DMSO at varying concentrations was added to the well. After 24 hours, the amount of DNA was measured using the picogreen and converted to cell count from a calibration curve separately created. The amount of ATP was quantified using the ATP measurement kit (Dojin Chemical), and the amount of ATP per cell was calculated.

The conditions of data set [9]: cited from earlier work.
Data set [10] relates to nematodes. The note with it: nematode, literature values of other drugs; cited from earlier work.

Regarding `CCC(CC)COC(=O)[C@H](C)N[P@](=O)(OC[C@H]1O[C@@H](n2cnc3c(N)ncnc32)[C@H](O)[C@@H]1O)Oc1ccccc1` [ATP prodrug, (S)-2-Ethylbutyl 2-(((S)-(((2R,3S,4R,5R)-5-(6-amino-9H-purine-9-yl)-3,4-dihydroxy-tetrahydrofuran-2-yl)methoxy) (phenoxy)phosphoryl)amino)propanoate], the “amount of LDH release” value in data set [1] (256 μM) is listed as “remains low”. In addition, in [1] (LDH assay), the cytotoxicity to cells entry is listed as “low cytotoxicity”. Also, the “AMPK activation (suggested from inhibitor experiment)” value in data set [2] is on record as “activates the AMPK”. Besides, in the data set with MCF7 cells, the “intracellular ATP level” value was “increased”. For the same compound, the “Lifespan Extension Rate” value with nematodes [3] (nematode, the present invention) worked out at 133%. The “average lifespan extended compared to the control” value in the data set with nematodes [3] (nematodes on NGM plate with 100 μM ATP prodrug) was “approximately 33%”. The “cell number under oxidative stress” value in the data set with HDF derived from human is “suppresses the decrease in cell number”. Further, the “intracellular ATP levels” value (in [4]; in data set [6]; in the data set on normal pig liver cells) was “increased” in each case. For the same compound, the “intracellular ATP amount compared to the control level” value in data set [5] is on record as “approximately 2.5 times”. The “amount of ATP per nematode higher than control” value in the data set on nematodes [7] is “approximately 23%”. For the same compound, the “intracellular ATP level compared to the control (0 μM)” value in the data set with Human fibroblasts (NHDF) worked out at 1.7 times.
As to `C[C@H](NP(=O)(N[C@@H](C)C(=O)OCC(C)(C)C)OC[C@H]1O[C@@H](n2cnc3c(N)ncnc32)C(O)C1O)C(=O)OCC(C)(C)C` (stereo partly shown) [ATP prodrug-neo], the “average lifespan extended compared to the control” value in the data set on nematodes [3] (nematodes on NGM plate with 200 µM ATP prodrug-neo) is listed as “approximately 26%”. Further, in [8], the “intracellular ATP levels” value is “increased”.
In the case of `Nc1ncnc2c1ncn2[C@@H]1O[C@H](COP(=O)(O)OP(=O)(O)OP(=O)(O)O)[C@@H](O)[C@H]1O` [ATP, adenosine triphosphate], the half-life in blood entry in data set [9] is recorded as “about 10 seconds”.
Take `CN(C)C(=N)N=C(N)N` [Metformin]: in the data set with nematodes [10], the “Lifespan Extension Rate” value was 127%.
In the case of `NC(=O)c1cccnc1` [Nicotinamide], the “Lifespan Extension Rate” value with nematodes [10] is recorded as 116%.
For the compound `Oc1ccc(C=Cc2cc(O)cc(O)c2)cc1` [Resveratrol], in the data set on nematodes [10], the “Lifespan Extension Rate” value was 110%.
